Laboratory results published in paper PMC10683025, “Discovery of a Hydroxylamine-Based Brain-Penetrant EGFR Inhibitor for Metastatic Non-Small-Cell Lung Cancer” (Journal of Medicinal Chemistry, 2023).
Where two headings read alike, the source gives them in different places.

Key:
[1] = molecular target: T1, EGFRwt (Homo sapiens, UniProt P00533); experiment: KINOMEScan KdELECT Kd determination; format: binding; conditions: wt; read-out: EGFR Kd
T1 construct: purchased Eurofins DiscoverX (contract assay)
Description: (§2) In vitro kinase activity (inhibitor binding constants (Kd) and biochemical inhibition (IC50’s)) were assessed by Eurofins DiscoverX (Kd determinations) and Eurofins Cerep (biochemical IC50 determinations).

[2] = molecular target: T1, EGFRwt; experiment: KinaseProfiler enzymatic radiometric assay; format: biochemical; conditions: wt, ATP 10 μM; read-out: EGFR IC50
Description: as §2

[3] = Metabolic stability in liver microsomes; format: in vitro ADME, human; conditions: for Remaining Percentage: human LM
Description: (§3) Microsome stability was assessed in duplicate (n = 2) in the presence and absence of nicotinamide adenine dinucleotide phosphate (NADPH) with liver microsomes (0.5 mg/mL) from human (BD Gentest) and Sprague-Dawley rats (BD Gentest). Compounds were incubated in liver microsomes at 1 μM and samples (30 μL) were taken at 0.5, 15, 30, 45, and 60 min time points for analysis by LC-MS/MS. Hepatocyte stability was assessed in duplicate (n = 2) at a working cell density of 0.5 × 10^6 cells/mL with hepatocytes from human (BiolVT), Sprague-Dawley rat (BiolVT), cynomolgus monkey (RILD) or beagle dog (BiolVT). […] The in vitro half-life and intrinsic clearances were determined as previously described.[76]
(§4) In vitro half-life (in vitro t1/2) was determined from the slope value in [drawing 1] where k was determined by linear regression of the natural logarithm of the remaining percentage of the parent drug vs the incubation time curve.

[4] = Metabolic stability in liver microsomes; format: in vitro ADME, Sprague-Dawley rat; conditions: for Remaining Percentage: rat LM
Description: as §3, §4

[5] = Metabolic stability in hepatocytes; format: in vitro ADME, human; conditions: for Remaining Percentages: human hepatocytes
Description: as §3, §4

[6] = Caco-2 permeability; format: in vitro ADME; conditions: human; for recovery at 2 h, 5 μM: Caco-2, Caco-2
Description: (§5) A 96-well HTS Transwell plate (Corning) was used for Caco-2 and MDCKII-MDR1 cell seeding. […] Plates were incubated at 37 °C for 2 h, and samples (50 μL) were taken at the beginning and end of the incubation in both the donor and acceptor wells with the assay run in duplicate (n = 2). Samples were analyzed by LC-MS/MS.
(§6) The efflux ratio was determined by using the following equation: [drawing 4] where Papp (B–A) indicates the apparent permeability in the basolateral to apical direction and Papp (A–B) indicates the apparent permeability in the apical to basolateral direction.

[7] = MDCKII-MDR1 permeability; format: in vitro ADME, canine; conditions: dog, MDCK-MDR1, MDCKII-MDR1
Description: as §5, §6

[8] = test system: MDR1; experiment: MDCKII-MDR1 permeability; format: in vitro ADME, canine; conditions: dog, MDCK-MDR1
Description: as §5, §6

[9] = Plasma protein binding by equilibrium dialysis; format: in vitro ADME
Description: (§1) Plasma protein binding and brain tissue binding were determined by Pharmaron, Inc. using the equilibrium dialysis method. […] Following incubation, the samples were analyzed by LC-MS/MS and the concentrations of the compounds were determined in the buffer and plasma solution chambers.

[10] = Brain tissue binding by equilibrium dialysis; format: in vitro ADME; conditions: rat
Description: as §1

[11] = molecular target: T2, hERG (Homo sapiens, UniProt Q12809); experiment: hERG manual patch clamp in HEK293; format: cell-based; conditions: human, HEK293 cells stably transfected with hERG; HEK 293 (+hERG), manual patch clamp
T2 construct: host or cells: HEK293

[12] = Pharmacokinetic study; format: in vivo, Sprague-Dawley rats; conditions: male, Sprague-Dawley, plasma; rat, 1 mg/kg IV and 5 mg/kg PO dosing (route of value not stated)
Description: Animal experiments were performed at Pharmaron, Inc. and animal use was approved by Pharmaron’s Institutional Animal Care and Use Committee (IACUC) in Pharmaron (Pharmaron IACUC, Protocol #PK-M-07182022, #PK-R-06012022, and #ON-CELL-XEN-06012022) following the guidance of AAALAC. Six- to eight-week-old male Sprague-Dawley rats (approximately 200–300 g) obtained from Si Bei Fu Laboratory Animal Technology Co., six- to eight-week-old male CD1 mice (approximately 20–30 g) obtained from Si Bei Fu Laboratory Animal Technology Co., and six- to eight-week-old female BALB/c nude mice (approximately 20–30 g) obtained from Si Bei Fu Laboratory Animal Technology Co., were used in the pharmacokinetic studies. Six- to eight-week-old female BALB/c nude mice (approximately 18–22 g) obtained from Beijing Anikeeper Biotech Co., Ltd. were used in the intracranial PDX study. Animals were housed at 20–25 °C with humidity ranging from 40 to 70% relative humidity, were exposed to 12 h light and dark cycles, and were supplied with food and water ab libitum.
Approximately 0.03 mL of blood was collected from the dorsal metatarsal vein (in the case of CD1 mice), 0.03 mL of blood from the orbit vein (in the case of BALB/c nude mice), or 0.2 mL of blood from the jugular vein (in the case of Sprague-Dawley rats) at each time point. Blood at each sampling point was transferred into a plastic micro centrifuge tube containing K2-EDTA, and collection tubes with blood samples and anticoagulant were inverted several times for proper mixing of the tube contents and placed on ice prior to centrifugation for plasma. Blood samples were centrifuged at 4 °C, 4000g for 5 min to obtain plasma. Samples were stored in a freezer at −75 °C prior to analysis. Concentrations of test articles in the plasma samples were determined using LC-MS/MS and WinNonlin 8.3 (Phoenix) was used for pharmacokinetic calculations. The values obtained were plotted on GraphPad Prism software and are presented as mean ± SD.

[13] = molecular target: T3, EGFRL858R (Homo sapiens, UniProt P00533, L858R); experiment: KINOMEScan KdELECT Kd determination; format: binding; set-up: purchased Eurofins DiscoverX (contract assay); conditions: L858R
Description: as §2

[14] = molecular target: T3, EGFRL858R; experiment: KinaseProfiler enzymatic radiometric assay; format: biochemical; set-up: purchased Eurofins Cerep (KinaseProfiler, contract assay); conditions: ATP 10 μM, read-out: EGFR IC50
Description: as §2

[15] = Sprague-Dawley, rat, rat plasma

T3 sequence (P00533 25-1210 L858R): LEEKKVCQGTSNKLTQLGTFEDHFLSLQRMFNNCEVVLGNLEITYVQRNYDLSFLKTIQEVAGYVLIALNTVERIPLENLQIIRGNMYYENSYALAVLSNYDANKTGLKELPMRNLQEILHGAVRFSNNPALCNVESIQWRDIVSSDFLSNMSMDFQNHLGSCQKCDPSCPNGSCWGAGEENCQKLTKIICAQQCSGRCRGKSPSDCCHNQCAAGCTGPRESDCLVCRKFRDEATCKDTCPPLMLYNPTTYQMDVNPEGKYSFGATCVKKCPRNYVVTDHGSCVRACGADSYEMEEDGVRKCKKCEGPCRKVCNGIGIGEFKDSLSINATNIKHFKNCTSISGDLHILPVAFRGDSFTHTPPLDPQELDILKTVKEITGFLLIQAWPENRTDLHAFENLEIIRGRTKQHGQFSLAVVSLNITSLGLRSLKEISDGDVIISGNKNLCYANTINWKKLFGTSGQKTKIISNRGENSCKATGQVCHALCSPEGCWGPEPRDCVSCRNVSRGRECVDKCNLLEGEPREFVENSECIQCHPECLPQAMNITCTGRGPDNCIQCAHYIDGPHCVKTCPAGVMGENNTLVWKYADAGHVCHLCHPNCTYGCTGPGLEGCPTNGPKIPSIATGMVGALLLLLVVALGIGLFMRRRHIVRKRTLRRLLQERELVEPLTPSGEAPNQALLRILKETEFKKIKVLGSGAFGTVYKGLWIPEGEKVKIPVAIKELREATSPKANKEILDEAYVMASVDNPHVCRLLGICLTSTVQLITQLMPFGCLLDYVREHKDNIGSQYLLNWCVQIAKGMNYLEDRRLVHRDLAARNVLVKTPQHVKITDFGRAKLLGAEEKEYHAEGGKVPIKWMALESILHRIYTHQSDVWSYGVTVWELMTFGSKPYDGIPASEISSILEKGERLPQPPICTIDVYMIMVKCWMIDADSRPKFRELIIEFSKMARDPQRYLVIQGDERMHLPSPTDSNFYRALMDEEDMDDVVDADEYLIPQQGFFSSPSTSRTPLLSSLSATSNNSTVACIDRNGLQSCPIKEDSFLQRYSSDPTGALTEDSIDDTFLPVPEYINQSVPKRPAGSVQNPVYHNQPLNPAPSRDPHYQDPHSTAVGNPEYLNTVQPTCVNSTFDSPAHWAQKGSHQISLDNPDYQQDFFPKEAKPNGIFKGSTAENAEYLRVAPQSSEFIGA
T1 sequence (P00533 25-1210): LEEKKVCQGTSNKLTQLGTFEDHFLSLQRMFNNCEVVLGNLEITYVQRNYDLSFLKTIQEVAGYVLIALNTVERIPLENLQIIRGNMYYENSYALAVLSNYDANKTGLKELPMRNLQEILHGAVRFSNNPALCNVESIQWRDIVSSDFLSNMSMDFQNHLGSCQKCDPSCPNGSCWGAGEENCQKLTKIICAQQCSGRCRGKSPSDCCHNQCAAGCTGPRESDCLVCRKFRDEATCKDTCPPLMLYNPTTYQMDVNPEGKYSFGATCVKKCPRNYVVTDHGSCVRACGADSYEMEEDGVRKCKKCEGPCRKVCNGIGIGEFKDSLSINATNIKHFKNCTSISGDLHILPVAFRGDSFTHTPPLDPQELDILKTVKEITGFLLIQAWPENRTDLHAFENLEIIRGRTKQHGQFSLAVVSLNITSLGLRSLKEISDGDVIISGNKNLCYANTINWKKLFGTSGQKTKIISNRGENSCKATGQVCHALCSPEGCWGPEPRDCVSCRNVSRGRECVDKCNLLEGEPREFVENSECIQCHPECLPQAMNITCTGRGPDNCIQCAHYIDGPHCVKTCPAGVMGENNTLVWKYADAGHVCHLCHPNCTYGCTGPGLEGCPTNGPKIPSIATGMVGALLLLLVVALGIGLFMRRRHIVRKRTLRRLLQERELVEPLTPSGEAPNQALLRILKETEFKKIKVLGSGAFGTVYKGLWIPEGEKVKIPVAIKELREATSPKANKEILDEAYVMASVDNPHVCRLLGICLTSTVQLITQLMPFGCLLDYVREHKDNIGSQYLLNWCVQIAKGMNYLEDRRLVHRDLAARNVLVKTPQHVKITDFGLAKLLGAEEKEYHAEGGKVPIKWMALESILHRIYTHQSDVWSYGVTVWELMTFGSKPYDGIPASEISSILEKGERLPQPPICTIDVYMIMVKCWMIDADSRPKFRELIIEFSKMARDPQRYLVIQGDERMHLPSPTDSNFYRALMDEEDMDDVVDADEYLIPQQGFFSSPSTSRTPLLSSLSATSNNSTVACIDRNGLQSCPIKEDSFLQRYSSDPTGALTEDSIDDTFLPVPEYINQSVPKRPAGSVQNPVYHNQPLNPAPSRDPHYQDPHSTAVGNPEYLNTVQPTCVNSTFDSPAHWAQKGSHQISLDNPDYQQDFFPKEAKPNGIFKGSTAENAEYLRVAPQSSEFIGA
T2 sequence (Q12809 whole entry): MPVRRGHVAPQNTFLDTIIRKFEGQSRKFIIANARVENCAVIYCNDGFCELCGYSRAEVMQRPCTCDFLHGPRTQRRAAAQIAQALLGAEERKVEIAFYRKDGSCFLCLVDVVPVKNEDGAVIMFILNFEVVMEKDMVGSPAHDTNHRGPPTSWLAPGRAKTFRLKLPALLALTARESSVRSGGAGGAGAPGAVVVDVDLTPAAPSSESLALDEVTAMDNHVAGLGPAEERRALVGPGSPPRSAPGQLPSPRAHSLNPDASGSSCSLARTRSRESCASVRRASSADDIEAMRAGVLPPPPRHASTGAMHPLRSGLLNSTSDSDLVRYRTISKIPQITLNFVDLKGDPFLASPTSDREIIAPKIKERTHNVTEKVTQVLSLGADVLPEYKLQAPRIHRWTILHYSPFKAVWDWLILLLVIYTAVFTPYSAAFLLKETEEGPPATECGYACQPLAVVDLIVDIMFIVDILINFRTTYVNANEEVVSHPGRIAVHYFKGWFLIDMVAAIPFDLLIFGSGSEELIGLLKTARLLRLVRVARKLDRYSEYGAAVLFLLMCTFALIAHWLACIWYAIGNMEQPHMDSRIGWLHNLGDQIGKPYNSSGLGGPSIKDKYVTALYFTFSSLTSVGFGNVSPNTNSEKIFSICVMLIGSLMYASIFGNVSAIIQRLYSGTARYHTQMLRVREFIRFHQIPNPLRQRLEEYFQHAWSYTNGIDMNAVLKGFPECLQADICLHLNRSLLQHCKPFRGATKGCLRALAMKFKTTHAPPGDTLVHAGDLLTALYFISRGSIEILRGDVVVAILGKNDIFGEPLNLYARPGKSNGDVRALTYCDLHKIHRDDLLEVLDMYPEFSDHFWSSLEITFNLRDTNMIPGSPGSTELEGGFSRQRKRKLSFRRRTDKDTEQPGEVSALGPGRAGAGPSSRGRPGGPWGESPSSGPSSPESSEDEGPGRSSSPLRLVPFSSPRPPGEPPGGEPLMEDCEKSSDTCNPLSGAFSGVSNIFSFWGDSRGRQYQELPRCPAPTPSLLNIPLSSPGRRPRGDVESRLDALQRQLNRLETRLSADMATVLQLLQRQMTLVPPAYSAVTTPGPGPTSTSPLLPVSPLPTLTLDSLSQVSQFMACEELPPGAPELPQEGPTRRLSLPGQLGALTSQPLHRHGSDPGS

In the case of `COc1cc2ncnc(Nc3cccc(Cl)c3F)c2cc1OCCON1CCOCC1` [Compound 7, N-(3-Chloro-2-fluorophenyl)-7-methoxy-6-(2-(morpholinooxy)ethoxy)quinazolin-4-amine], the Kd [1] is reported as < 0.2 nM, the IC50 [2] is reported as 3 nM and the “Remaining Percentage” value ([3]; +Cofactors, 15 min) is reported as 43.79%. The “Remaining Percentage” value ([3]; +Cofactors, 30 min) was 21.93%, the “Remaining Percentage” value ([3]; +Cofactors, 45 min) was 10.84% and the “Remaining Percentage” value ([3]; +Cofactors, 60 min) was 7.20%. The “Remaining Percentage” value ([3]; -Cofactors, 60 min) was 87.34%, the half-life at 1 h, 1 µM ([3]; human, liver microsomes, read-out: LM t1/2) was 14 min and the microsomal CLint at 1 h, 1 µM ([3]; human, liver microsomes, read-out: LMClint) was 99 µL/min/mg. For the same molecule, the half-life at 1 h, 1 µM ([4]; Sprague-Dawley, rat, liver microsomes, read-out: LM t1/2) was 10 min, the microsomal CLint at 1 h, 1 µM ([4]; Sprague-Dawley, rat, liver microsomes, read-out: LMClint) was 138 µL/min/mg and the “Remaining Percentage” value ([4]; +Cofactors, 15 min) was 28.79%. The “Remaining Percentage” value ([4]; +Cofactors, 30 min) was 12.97%, the “Remaining Percentage” value ([4]; +Cofactors, 45 min) was 8.49% and the “Remaining Percentage” value ([4]; +Cofactors, 60 min) was 5.84%. The “Remaining Percentage” value ([4]; -Cofactors, 60 min) was 118.60%, the “Remaining Percentages” value ([5]; 15 min) was 96.13% and the “Remaining Percentages” value ([5]; 30 min) was 87.34%. For the same molecule, the “Remaining Percentages” value ([5]; 60 min) was 76.27%, the “Remaining Percentages” value ([5]; 90 min) was 61.58% and the “Remaining Percentages” value ([5]; 120 min) was 45.68%. For the same molecule, the hepatocyte CLint at 2 h, 1 µM ([5]; human, hepatocytes) was 13 µL/min/1e6 cells, the half-life at 2 h, 1 µM ([5]; human, hepatocytes, read-out: HEP t1/2) was 108 min and the efflux ratio at 2 h, 5 µM ([6]; Caco-2) was 1. For the same molecule, the recovery at 2 h, 5 μM ([6]; read-out: Recovery% (AP-BL)) was 72.9%, the recovery at 2 h, 5 μM ([6]; read-out: Recovery% (BL-AP)) was 72.2% and the Papp A→B at 2 h, 5 µM ([6]; Caco-2, 5 μM, 2 h) was 10.9 ×10⁻⁶ cm/s. It also gave a Papp A→B at 2 h, 5 μM ([6]; Caco-2, 5 μM, 2 h) of 10.9 ×10⁻⁶ cm/s, a Papp B→A at 2 h, 5 µM ([6]; Caco-2, 5 μM, 2 h) of 10.8 ×10⁻⁶ cm/s and a Papp B→A at 2 h, 5 μM ([6]; Caco-2, 5 μM, 2 h) of 10.8 ×10⁻⁶ cm/s. It also gave a recovery at 2 h, 1 μM ([7]; read-out: Recovery% (AP-BL)) of 73.5%, a recovery at 2 h, 1 μM ([7]; read-out: Recovery% (BL-AP)) of 76.4% and an efflux ratio at 2 h, 1 µM [8] of 1.1. The efflux ratio at 2 h, 1 μM [8] was 1.06, the Papp A→B at 2 h, 1 µM ([8]; 1 μM, 2 h) was 12.6 ×10⁻⁶ cm/s and the Papp A→B at 2 h, 1 μM ([8]; 1 μM, 2 h) was 12.6 ×10⁻⁶ cm/s. The Papp B→A at 2 h, 1 µM ([8]; 1 μM, 2 h) was 13.3 ×10⁻⁶ cm/s, the Papp B→A at 2 h, 1 μM ([8]; 1 μM, 2 h) was 13.3 ×10⁻⁶ cm/s and the fraction unbound at 6 h, 5 μM ([9]; Sprague-Dawley, rat, plasma, 5 μM, read-out: fu,plasma% / %Unbound) was 0.105. For the same molecule, the recovery at 6 h, 5 μM [9, 15] was 110%, the remaining at 6 h, 5 μM [9, 15] was 101% and the fraction unbound at 6 h, 5 μM ([9]; Sprague-Dawley, rat, rat plasma, read-out: %Bound (converted)) was 0.105. The recovery at 6 h, 5 μM ([9]; human, human plasma) was 98.9%, the remaining at 6 h, 5 μM ([9]; human, human plasma) was 99.4% and the fraction unbound at 6 h, 5 μM ([9]; human, human plasma, read-out: fu,plasma% / %Unbound (converted)) was 0.0412. The fraction unbound at 6 h, 5 μM ([9]; plasma, human, 5 μM, read-out: fu,plasma% / %Unbound (converted)) was 0.0412, the recovery at 6 h, 5 μM ([10]; Sprague-Dawley (SD), rat brain homogenate) was 94.7% and the fraction unbound at 6 h, 5 μM ([10]; Sprague-Dawley, brain homogenate, read-out: fu,brain% / %Unboundbrain) was 0.0478. For the same molecule, the remaining at 6 h, 5 μM ([10]; Sprague-Dawley, rat brain homogenate) was 98.3%, the fraction unbound at 6 h, 5 μM ([10]; Sprague-Dawley, rat brain homogenate, read-out: %Boundbrain (converted)) was 0.0478 and the IC50 [11] was 8480 ± 3500 nM. For the same molecule, the AUC(0-inf) at 24 h [12] was 89 ng·h/mL, the half-life at 24 h [12] was 33.6 min and the Kd [13] was < 0.2 nM. The IC50 [14] was 1 nM.
